In brackets after ≈: the same amount, converted by molar mass. Where two headings read alike, the source gives them in different places.
Test system: MRSA
Conditions: Staphylococcus aureus
Method: Macroarray compounds are dissolved in DMSO and pipetted into a 96-well multititer plate containing Luria-Bertani (LB) broth inoculated with MRSA. The final concentrations of the compounds selected, e.g., 50 μM, 25 μM, 12.5 μM, 6.3 μM, and 3.1 μM, with a final DMSO concentration of 2.5% for each compound in a given well. The plate is incubated with shaking at 37° C. for 18 h, and the absorbance is measured at 595 nm using a plate-reader. The approximate MIC can be determined by the complete absence of bacterial growth relative to our negative control (LB broth with no bacteria added).
For estimated MIC determination, DMSO was added to the dried compound residue obtained from a single spot to afford ca. 100 μL of a 2 mM stock solution. Aliquots (5 μL) of these solutions were added to a 96-well plate, followed by 195 μL of diluted S. aureus 10390 (10^6 CFUs/mL) to yield ca. 50 μM final concentrations. The plates were swirled for 1 h to ensure compound dissolution, incubated for 12 h at 37° C., and the absorbance at 595 nm was recorded using a plate reader. […] Actual MIC values were determined for lead compounds resynthesized in solution using an analogous procedure with solutions of known concentration.
An aliquot of DMSO (ca. 100 μL depending on the loading of the parent hydroxyacetophenone) was added to the dried compound residue obtained after TFA cleavage and elution from a single spot. This afforded a 2.0 mM “spot stock” solution for each spot.
For estimated MIC screens, 5.0 μL portions of the “spot stock” solutions were added to the appropriate wells in a sterile, polystyrene 96-well plate to yield ca. 50 μM solutions (dependent on the initial loading of hydroxyacetopheneone and compound purity). […] All estimated MIC assays were performed in quadruplicate. Note: the MIC value is defined as the lowest concentration where no bacterial growth occurs.
This assay procedure is based in part on the method reported by Strøm et al. (Strøm, M. B.; Haug, E. B.; Skar, M. L.; Stensen, W.; Stiberg, T.; Svendsen, J. S. J. Med. Chem. 2003, 46, 1567-1570.) A 400 μL portion of overnight S. aureus 10390 culture was diluted with 100 mL of sterile LB broth to give ca. 10^6 CFUs per mL. Aliquots (195 μL) of this solution were added to all of the wells in a sterile 96-well plate (except for the negative control wells; 195 μL of sterile LB broth were added to these wells). The plates were placed on an orbital shaker table and gently swirled for 1 h to ensure compound dissolution, and then incubated (without shaking) for 12 h at 37° C. The absorbance at 595 nm was recorded using a plate reader.

| Compound | MIC (read-out: Solution MIC) | MIC (read-out: Support MIC) |
| --- | --- | --- |
| NC(=O)COc1cccc(C(=O)/C=C/c2cccc(C(F)(F)F)c2)c1 [Compound B18] | 54 ± 1 µM (≈ 18.9 µg/mL) | 25 to 50 µM (≈ 8.73 to 17.5 µg/mL) |
| O=C(O)c1cn(C2CC2)c2cc(N3CCNCC3)c(F)cc2c1=O [ciprofloxacin] | 0.6 ± 0.2 µM (≈ 0.199 µg/mL) |  |
| CC(=O)NC[C@H]1CN(c2ccc(N3CCOCC3)c(F)c2)C(=O)O1 [linezolid] | 5 ± 1 µM (≈ 1.69 µg/mL) |  |

— patent US8367680B2, “Antibacterial small molecules and methods for their synthesis” (Wisconsin Alumni Research Foundation, priority 2008, dated 2013)
